“Also recorded” adds a separate entry of the source.
Tests used:
[1] = system: adalimumab-specific IgG response; test: ADA against adalimumab in hIgG1 Tg mice, ELISA (Example 1, 28 days); format: in vivo, C57BL/6-Tg (hIgG1,k,l) mice; conditions: 40 mg/kg/day via food admix from one day before first immunization until day 28, vs vehicle
Excerpt: (§1) For immunogenicity assessment, we used the previously described human IgG1 immune-tolerant mouse model (Bessa, Boeckle et al. Pharm Res 2015, 32(7): 2344-2359). Since this human IgG transgenic mouse is tolerant to a broad range of human IgG1 antibodies (Abs), ADA responses elicited in this system are taken to reflect intrinsic immunogenic attributes of the eliciting Ab compounds also expected to cause ADA in humans.
(§2) 15-week-old mice C57BL/6 wild type and C57BL/6-Tg (hIgG1,k,l) were purchased from Taconic (Denmark) and housed at the animal facilities under a 12 hour (h) light 12 h dark cycle with cycles of air ventilation and free access to water and food. 7×10 μg of CEA-112v or 7×10 μg of Humira (Adalimumab, Abbvie Germany GmbH) were injected respectively at day 0, 4, 7, 11, 14, 18 and 21 subcutaneously in the right flank or the left flank alternatively. The dosage of the cathepsin S inhibitor consumption was 40 mg/kg/day. […]
(§3) Nunc Maxisorp flat-bottom 96 well ELISA plates were coated with 100 μl per well of Humira or CEA-PGLALA (3.42 mg/ml, ID 8037) respectively at 5 μg/mL in NaHCO3100 mM buffer overnight at +4° C. […] 100 μl of substrate P-nitrophenyl phosphate ready to use (Life Technologies Cat no 002212) were added per well and after 10 min incubation at room temperature, the OD at 405 nm was read as an end-point measurement with a Versamax ELISA reader.

[2] = system: CEA-specific IgG response; test: ADA against CEA-IL2v in hIgG1 Tg mice, ELISA (Example 1, 28 days); format: in vivo, C57BL/6-Tg (hIgG1,k,l) mice; conditions: 40 mg/kg/day via food admix from one week before first immunization until day 28, vs vehicle
Excerpt: as §1, §2, §3

[3] = system: CEA-specific IgG response; test: ADA against CEA-IL2v in wild-type mice, ELISA (Example 1, 28 days); format: in vivo, C57BL/6 wild type mice; conditions: 40 mg/kg/day via food admix from one week before first immunization until day 28, vs vehicle
Protocol: 15-week-old mice C57BL/6 wild type and C57BL/6-Tg (hIgG1,k,l) were purchased from Taconic (Denmark) and housed at the animal facilities under a 12 hour (h) light 12 h dark cycle with cycles of air ventilation and free access to water and food. 7×10 μg of CEA-112v or 7×10 μg of Humira (Adalimumab, Abbvie Germany GmbH) were injected respectively at day 0, 4, 7, 11, 14, 18 and 21 subcutaneously in the right flank or the left flank alternatively. The dosage of the cathepsin S inhibitor consumption was 40 mg/kg/day. The food admix (Ssniff Spezialdiäten, Germany) was given daily one day before the first immunization until day 28 for the mice immunized with Humira. The food admix was given daily one week before the first immunization until day 28 for the mice immunized with CEA-IL2v (R06895882). At day −12, 7, 14 and 28 blood samples were taken.
Nunc Maxisorp flat-bottom 96 well ELISA plates were coated with 100 μl per well of Humira or CEA-PGLALA (3.42 mg/ml, ID 8037) respectively at 5 μg/mL in NaHCO3100 mM buffer overnight at +4° C. The next day the ELISA plates were washed 3 times with PBS+0.05% Tween. […] 100 μl of substrate P-nitrophenyl phosphate ready to use (Life Technologies Cat no 002212) were added per well and after 10 min incubation at room temperature, the OD at 405 nm was read as an end-point measurement with a Versamax ELISA reader.

[4] = system: IgG response to murine surrogate PD-L1; test: ADA against murine surrogate PD-L1 in wild-type mice, ELISA (Example 7); format: in vivo, C57BL/6 mice; conditions: 40 mg/kg/day via food admix from one week before first immunization until day 23
Protocol: 10-week-old female mice C57BL/6 were purchased from Charles River Laboratories (Germany) and housed at the animal facilities in room with air-conditioned under a 12 hours light/dark cycle in macrolon boxes with enriched environment and free access to water and food. 10 mg/kg of muPD-L1 (P1AE4930-001) were injected at day 1, 8 and 15 intravenously to the group 4 (n=10 mice) and at day 1, 8, 15 and 22 to the group 5 (n=10 mice) respectively. The dosage of (2S,4R)-4-[4-(1-methyl-1H-pyrazol-4-yl)-2-trifluoromethyl-benzenesulfonyl]-1-(1-trifluoromethyl-cyclopropanecarbonyl)-pyrrolidine-2-carboxylic acid (1-cyano-cyclopropyl)-amide consumption was 40 mg/kg/day. (2S,4R)-4-[4-(1-methyl-1H-pyrazol-4-yl)-2-trifluoromethyl-benzenesulfonyl]-1-(1-trifluoromethyl-cyclopropanecarbonyl)-pyrrolidine-2-carboxylic acid (1-cyano-cyclopropyl)-amide was given via food admix (Ssniff Spezialdiäten, Germany) daily from one week before the first muPD-L1 immunization until day 23 to the group 5. […]
Nunc Maxisorp flat-bottom 96 well ELISA plates were coated with 100 μl per well of anti muPD-L1 (P1AE4930-001) at 5 μg/mL in NaHCO3100 mM buffer overnight at +4° C. […] 100 μl of substrate P-nitrophenyl phosphate ready to use (Life Technologies, Cat no 002212) were added per well and after 10 min incubation at room temperature, the OD at 405 nm was read as an end-point measurement with a Versamax ELISA reader.

Cn1cc(-c2ccc(S(=O)(=O)[C@@H]3C[C@@H](C(=O)NC4(C#N)CC4)N(C(=O)C4(C(F)(F)F)CC4)C3)c(C(F)(F)F)c2)cn1 [cathepsin S inhibitor, (2S,4R)-4-[4-(1-methyl-1H-pyrazol-4-yl)-2-trifluoromethyl-benzenesulfonyl]-1-(1-trifluoromethyl-cyclopropanecarbonyl)-pyrrolidine-2-carboxylic acid (1-cyano-cyclopropyl)-amide]
ADA to adalimumab (adalimumab-specific IgG) [1]: reduces ADA to adalimumab; also recorded: reduced ADA levels compared to vehicle treated animals
ADA to CEA-IL2v (CEA-specific IgG) [2]: prevents ADA to CEA-IL2v in hIgG transgenic mice; also recorded: complete abrogation of ADA to CEA-IL2v
ADA to CEA-IL2v (CEA-specific IgG) [3]: reduces its levels in wild-type mice; also recorded: only partial reduction of ADA
ADA to mPD-L1 [4]: significantly reduced ADA to mPD-L1
